Numbered stars: 1 amine (or outer) side, 2 acyl side, 3 side chain; on linkers, the order of the positions; unused ones are H or OH. Peptide text beside a SMILES is read from it. * marks the point of attachment. C20 diacid = O=C(O)CCCCCCCCCCCCCCCCCCC(=O)*; C18 diacid = O=C(O)CCCCCCCCCCCCCCCCC(=O)*; γGlu = O=C(O)[C@H](CCC(=O)[*:2])N[*:1] Some results are limits rather than exact numbers.

The target of data set [1] is T1, Calcitonin receptor (Homo sapiens, UniProt P30988).
T1 sequence (P30988 whole entry): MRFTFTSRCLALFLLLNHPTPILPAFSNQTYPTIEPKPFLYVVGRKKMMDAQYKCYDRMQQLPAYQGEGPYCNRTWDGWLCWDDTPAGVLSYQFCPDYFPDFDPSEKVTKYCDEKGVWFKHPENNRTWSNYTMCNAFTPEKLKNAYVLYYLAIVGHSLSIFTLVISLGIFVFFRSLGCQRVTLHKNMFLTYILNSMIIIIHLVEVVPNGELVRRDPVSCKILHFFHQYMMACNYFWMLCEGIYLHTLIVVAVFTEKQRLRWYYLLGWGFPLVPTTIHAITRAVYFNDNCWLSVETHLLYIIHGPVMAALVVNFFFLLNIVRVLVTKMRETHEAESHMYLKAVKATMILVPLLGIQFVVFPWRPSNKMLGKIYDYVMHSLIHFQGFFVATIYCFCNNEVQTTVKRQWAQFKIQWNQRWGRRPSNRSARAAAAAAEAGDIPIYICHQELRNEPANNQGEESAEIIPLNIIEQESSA
Briefly: Agonist activity at human calcitonin receptor expressed in BHK570 cells assessed as increase in intracellular cAMP concentration incubated for 3 hrs in absence of albumin by CRE luciferase reporter gene assay. Type of data set: functional, cell-based. (Reporter assays use an easily measured gene product as a stand-in for the process of interest.)

The target in data set [2] is T1, Calcitonin receptor. Briefly: Agonist activity at human calcitonin receptor expressed in BHK570 cells assessed as increase in intracellular cAMP concentration incubated for 3 hrs in presence of 10% FBS by CRE luciferase reporter gene assay. Type of data set: functional, cell-based.
Data set [3] in a line: Solubility in 100 mM glycylglycine buffer at pH 3.0 incubated for 18 hrs by UPLC analysis. It is filed as physicochemical.
Data set [4] can be described thus: Solubility in 100 mM glycylglycine buffer at pH 4.0 incubated for 18 hrs by UPLC analysis. Type of data set: physicochemical.
Data set [5] is described as follows: Solubility in 100 mM bistrispropane buffer at pH 6.0 incubated for 18 hrs by UPLC analysis. It is filed as physicochemical.
The nature of data set [6]: Solubility in 100 mM glycylglycine buffer at pH 5.0 incubated for 18 hrs by UPLC analysis. It is filed as physicochemical.
A short description of data set [7]: Solubility in 100 mM bistrispropane buffer at pH 6.5 incubated for 18 hrs by UPLC analysis. Type of data set: physicochemical.
Data set [8] is described as follows: Solubility in 100 mM bistrispropane buffer at pH 7.0 incubated for 18 hrs by UPLC analysis. Type of data set: physicochemical.
Data set [9] can be described thus: Solubility in 100 mM bistrispropane buffer at pH 7.5 incubated for 18 hrs by UPLC analysis. It is filed as physicochemical.
The nature of data set [10]: Solubility in 100 mM bistrispropane buffer at pH 8.0 incubated for 18 hrs by UPLC analysis. Type of data set: physicochemical.
The target in data set [11] is T2, Amylin receptor AMY3; CALCR/RAMP3 (Homo sapiens, UniProt O60896+P30988).
T2 sequence (P30988 whole entry): T1 sequence (P30988 whole entry)
T2 sequence (O60896 whole entry): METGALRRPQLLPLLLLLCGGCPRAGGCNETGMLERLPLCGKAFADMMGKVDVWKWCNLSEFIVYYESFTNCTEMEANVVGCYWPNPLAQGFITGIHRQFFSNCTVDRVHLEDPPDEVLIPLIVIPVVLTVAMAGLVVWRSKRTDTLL
Briefly: Displacement of [125I]-labeled rat amylin from human amylin receptor expressed in BHK tkts13 whole cells co-expressing RAMP3 incubated for 60 mins by scintillation proximity assay. Type of data set: cell-based. In general terms: Loss of bound radioactivity is the signal in a displacement assay; it reports binding, not function.

In data set [12] the target is T2, Amylin receptor AMY3; CALCR/RAMP3. The experiment in a line: Agonist activity at human amylin receptor expressed in BHK570 cells co-expressing RAMP3 assessed as increase in intracellular cAMP concentration incubated for 3 hrs in absence of albumin by CRE luciferase reporter gene assay. Type of data set: functional, cell-based.

For orientation: EC50 means the midpoint of the concentration-response curve. A word on the solubility: it is the dissolved amount per volume that the medium holds. Higher therefore signals a readily soluble substance. One may read the IC50 as the concentration that gives 50% inhibition. Regarding `CC(C)C[C@H](NC(=O)[C@H](CCCNC(=N)N)NC(=O)CNC(=O)[C@H](CC(C)C)NC(=O)[C@@H](NC(=O)[C@H](C)NC(=O)[C@@H](NC(=O)[C@@H](NC(=O)[C@H](CC(C)C)NC(=O)[C@H](CCC(=O)O)NC(=O)[C@H](CO)NC(=O)[C@H](C)NC(=O)CC[C@H](NC(=O)CCCCCCCCCCCCCCCCC(=O)O)C(=O)O)[C@@H](C)O)[C@@H](C)O)C(C)C)C(=O)N[C@@H](CCC(=O)O)C(=O)N[C@@H](C)C(=O)N[C@@H](CCC(=O)O)C(=O)N[C@@H](CC(C)C)C(=O)N[C@@H](Cc1cnc[nH]1)C(=O)N[C@@H](CCC(=O)O)C(=O)N[C@@H](CC(C)C)C(=O)N[C@H](C(=O)N[C@H](C(=O)N[C@@H](CC(C)C)C(=O)N1CCC[C@H]1C(=O)N[C@@H](CCCNC(=N)N)C(=O)N[C@H](C(=O)N[C@@H](CCC(=O)O)C(=O)N[C@H](C(=O)NCC(=O)N[C@H](C(=O)NCC(=O)N[C@H](C(=O)N1CCC[C@H]1C(N)=O)[C@@H](C)O)[C@@H](C)O)[C@@H](C)O)[C@@H](C)O)[C@@H](C)O)[C@@H](C)O` ({C18 diacid-γGlu}-ASELTTAVLGRLEAELHELTTLPRTETGTGTP-NH2), the EC50 turned out to be 0.066 nM at Calcitonin receptor [1] and 0.031 nM on Calcitonin receptor [2]. Further, the solubility at 18 h in data set [3], in data set [4], in [5], in data set [6], in data set [7] and in data set [8] was at least 200 µM in each case. Also, the solubility at 18 h in [9] and in [10] was at least 200 µM in each case. Also, the IC50 in data set [11] was 19.7 nM.

As to `CC(C)C[C@H](NC(=O)[C@H](C)NC(=O)[C@H](C)NC(=O)[C@@H](NC(=O)[C@H](CO)NC(=O)[C@H](CC(C)C)NC(=O)[C@H](CCC(=O)O)NC(=O)[C@H](CO)NC(=O)[C@H](C)NC(=O)CC[C@H](NC(=O)CCCCCCCCCCCCCCCCCCC(=O)O)C(=O)O)[C@@H](C)O)C(=O)NCC(=O)N[C@@H](CCCNC(=N)N)C(=O)N[C@@H](CC(C)C)C(=O)N[C@@H](CO)C(=O)N[C@@H](C)C(=O)N[C@@H](CCC(=O)O)C(=O)N[C@@H](CC(C)C)C(=O)N[C@@H](Cc1cnc[nH]1)C(=O)N[C@@H](CCC(=O)O)C(=O)N[C@@H](CC(C)C)C(=O)N[C@@H](C)C(=O)N[C@H](C(=O)N[C@@H](CC(C)C)C(=O)N1CCC[C@H]1C(=O)N[C@@H](CCCNC(=N)N)C(=O)N[C@H](C(=O)N[C@@H](CCC(=O)O)C(=O)N[C@H](C(=O)NCC(=O)N[C@H](C(=O)NCC(=O)N[C@H](C(=O)N1CCC[C@H]1C(N)=O)[C@@H](C)O)[C@@H](C)O)[C@@H](C)O)[C@@H](C)O)[C@@H](C)O` ({C20 diacid-γGlu}-ASELSTAALGRLSAELHELATLPRTETGTGTP-NH2), the EC50 was 0.05 nM in data set [12], 0.045 nM at Calcitonin receptor [1] and 0.056 nM at Calcitonin receptor [2]. Moreover, the solubility at 18 h in data set [3], in data set [4], in data set [5], in [6], in data set [7] and in data set [8] was at least 200 µM each time. Besides, the solubility at 18 h in data set [9] and in data set [10] was at least 200 µM each time. Moreover, the IC50 in data set [11] is 0.606 nM.

`CC(C)C[C@H](NC(=O)CNC(=O)[C@H](CO)NC(=O)[C@H](C)NC(=O)CC[C@H](NC(=O)CCCCCCCCCCCCCCCCCCC(=O)O)C(=O)O)C(=O)N[C@@H](CO)C(=O)N[C@H](C(=O)N[C@@H](C)C(=O)N[C@@H](C)C(=O)N[C@@H](CC(C)C)C(=O)NCC(=O)N[C@@H](CCCNC(=N)N)C(=O)N[C@@H](CC(C)C)C(=O)N[C@@H](CO)C(=O)N[C@H](C(=O)N[C@@H](CCC(=O)O)C(=O)N[C@@H](CC(C)C)C(=O)N[C@@H](Cc1cnc[nH]1)C(=O)N[C@@H](CCC(=O)O)C(=O)N[C@@H](CC(C)C)C(=O)N[C@@H](CCC(=O)O)C(=O)N[C@H](C(=O)N[C@@H](Cc1ccc(O)cc1)C(=O)N1CCC[C@H]1C(=O)N[C@@H](CCCNC(=N)N)C(=O)N[C@H](C(=O)N[C@@H](CCC(=O)O)C(=O)N[C@H](C(=O)NCC(=O)N[C@@H](CO)C(=O)NCC(=O)N[C@H](C(=O)N[C@@H](Cc1ccc(O)cc1)C(N)=O)[C@@H](C)O)[C@@H](C)O)[C@@H](C)O)[C@@H](C)O)[C@@H](C)O)[C@@H](C)O` ({C20 diacid-γGlu}-ASGLSTAALGRLSTELHELETYPRTETGSGTY-NH2): the values for the EC50 (in data set [12]; on Calcitonin receptor [1]; at Calcitonin receptor [2]) were 0.054 nM, 0.018 nM and 0.067 nM, respectively. The solubility at 18 h in data set [3], in [5], in data set [7], in data set [8], in data set [9] and in [10] was at least 200 µM each time. For the same molecule, the IC50 in [11] is 0.431 nM.

For the molecule `CC(C)C[C@H](NC(=O)[C@H](C)NC(=O)[C@H](C)NC(=O)[C@@H](NC(=O)[C@H](CO)NC(=O)[C@H](CC(C)C)NC(=O)[C@H](CCC(=O)O)NC(=O)[C@H](CO)NC(=O)[C@H](C)NC(=O)[C@H](C)NC(=O)[C@H](CCC(=O)O)NC(=O)CC[C@H](NC(=O)CCCCCCCCCCCCCCCCCCC(=O)O)C(=O)O)[C@@H](C)O)C(=O)NCC(=O)N[C@@H](CCCNC(=N)N)C(=O)N[C@@H](CC(C)C)C(=O)N[C@@H](CO)C(=O)N[C@@H](C)C(=O)N[C@@H](CCC(=O)O)C(=O)N[C@@H](CC(C)C)C(=O)N[C@@H](Cc1cnc[nH]1)C(=O)N[C@@H](CCC(=O)O)C(=O)N[C@@H](CC(C)C)C(=O)N[C@@H](C)C(=O)N[C@H](C(=O)N[C@@H](Cc1ccc(O)cc1)C(=O)N1CCC[C@H]1C(=O)N[C@@H](CCCNC(=N)N)C(=O)N[C@H](C(=O)N[C@@H](CCC(=O)O)C(=O)N[C@H](C(=O)NCC(=O)N[C@@H](CO)C(=O)NCC(=O)N[C@@H](CO)C(=O)N1CCC[C@H]1C(N)=O)[C@@H](C)O)[C@@H](C)O)[C@@H](C)O` ({C20 diacid-γGlu}-EAASELSTAALGRLSAELHELATYPRTETGSGSP-NH2), the EC50 in [12] was 0.017 nM; on Calcitonin receptor [1], 0.015 nM; at Calcitonin receptor [2] it was 0.113 nM. For the same molecule, the solubility at 18 h in data set [3], in data set [4], in data set [5], in data set [6], in data set [7] and in data set [8] was at least 200 µM in each case. In addition, the solubility at 18 h in [9] and in [10] was at least 200 µM each time. The IC50 in data set [11] is 1.92 nM.
